Like-named read-outs stand apart in the source and are kept apart here.
Tested on: souris
Conditions: mouse
Description: Ces études ont été réalisées chez des souris mâles, de souche NMRI-Han, réparties au hasard en lots de 15 souris (séries traitées) et 20 souris (série contrôle).
La motilité a été mesurée à l'aide d'un actimètre "type Dews" (Brit. J. Pharmacol. 1953, 8 : 46). Les animaux sont placés un par un dans une enceinte rectangulaire en matière plastique transparente (mesures intérieures : L = 24 cm, l = 15 cm, h = 9,5 cm), couverte par un grillage métallique et traversée par deux faisceaux infra-rouges perpendiculaires situés à 2 cm au-dessus du plancher (médianes de l'enceinte); ces deux faisceaux viennent frapper deux cellules photo-électriques reliées à un compteur d'impulsions déclenché à chaque fois que l'animal coupe un des faisceaux. Les actimètres ont été placés dans une pièce non insonorisée mais en dehors de tout bruit aigu, à une température de l'ordre de 21°C.
L'activité motrice a été mesurée au cours des 5 premières minutes (exploration non anxiogène) puis entre 5 et 15 minutes (activité basale non anxiogène).
Les doses ont été calculées selon une progression géométrique de base 700 (correspondant au 1/10 de la DL 50) et de raison 2, soit respectivement 175, 350, 700 et 1400 mg.kg⁻¹.
Les traitements sont réalisés 60 minutes avant le test.
Il est identique à celui décrit dans l'exemple précédent.
Les doses ont été calculées selon une progression géométrique de base 700 (correspondant au 1/10 de la DL 50) et de raison 2, soit respectivement 10,95; 21,9; 43,8; 87,5; 175; 350; 700 mg/kg. […] Les derniers traitements ont été réalisés 60 minutes avant le test.

[1] = repeated daily dosing (13 days), 10.95 mg/kg P.O., last dose 60 min before test
[2] = repeated daily dosing (13 days), 21.9 mg/kg P.O., last dose 60 min before test
[3] = repeated daily dosing (13 days), 43.8 mg/kg P.O., last dose 60 min before test, 43.8 mg/kg
[4] = repeated daily dosing (13 days), 43.8 mg/kg P.O., last dose 60 min before test, listed as Mag, 43.8 mg/kg
[5] = repeated daily dosing (13 days), 87.5 mg/kg P.O., last dose 60 min before test
[6] = repeated daily dosing (13 days), 175 mg/kg P.O., last dose 60 min before test
[7] = repeated daily dosing (13 days), 350 mg/kg P.O., last dose 60 min before test, 350 mg/kg
[8] = repeated daily dosing (13 days), 350 mg/kg P.O., last dose 60 min before test, listed as Mag, 350 mg/kg
[9] = repeated daily dosing (13 days), 700 mg/kg P.O., last dose 60 min before test
[10] = single dose 175 mg.kg⁻¹ P.O., 60 min before test
[11] = single dose 350 mg.kg⁻¹ P.O., 60 min before test
[12] = single dose 700 mg.kg⁻¹ P.O., 60 min before test
[13] = single dose 700 mg.kg⁻¹ P.O., 60 min before test, listed as Mag
[14] = single dose 1400 mg.kg⁻¹ P.O., 60 min before test

Which results are given for α-β-aspartate de magnésium?
Activité motrice 0-5 minutes, nombre de coupures de faisceaux (moyenne) [1]: 98; Activité motrice 0-15 minutes, nombre de coupures de faisceaux (moyenne) [1]: 221; Activité motrice 5-15 minutes, nombre de coupures de faisceaux (moyenne) [1]: 123; Activité motrice 0-5 minutes, nombre de coupures de faisceaux (moyenne) [2]: 104; Activité motrice 0-15 minutes, nombre de coupures de faisceaux (moyenne) [2]: 237; Activité motrice 5-15 minutes, nombre de coupures de faisceaux (moyenne) [2]: 133; Activité motrice 0-15 minutes, nombre de coupures de faisceaux (moyenne) (repeated daily dosing (13 days), 43.8 mg/kg P.O., last dose 60 min before test): 232; Activité motrice 0-5 minutes, nombre de coupures de faisceaux (moyenne) [3]: élévation significative; Activité motrice 5-15 minutes, nombre de coupures de faisceaux (moyenne) [3]: élévation significative; Activité motrice 0-5 minutes, nombre de coupures de faisceaux (moyenne) [4]: 104; Activité motrice 5-15 minutes, nombre de coupures de faisceaux (moyenne) [4]: 128; Activité motrice 0-5 minutes, nombre de coupures de faisceaux (moyenne) [5]: 99; Activité motrice 0-15 minutes, nombre de coupures de faisceaux (moyenne) [5]: 195; Activité motrice 5-15 minutes, nombre de coupures de faisceaux (moyenne) [5]: 96; Activité motrice 0-5 minutes, nombre de coupures de faisceaux (moyenne) [6]: 106; Activité motrice 0-15 minutes, nombre de coupures de faisceaux (moyenne) [6]: 228; Activité motrice 5-15 minutes, nombre de coupures de faisceaux (moyenne) [6]: 122; Activité motrice 0-15 minutes, nombre de coupures de faisceaux (moyenne) (repeated daily dosing (13 days), 350 mg/kg P.O., last dose 60 min before test): 248; Activité motrice 0-5 minutes, nombre de coupures de faisceaux (moyenne) [7]: élévation significative; Activité motrice 5-15 minutes, nombre de coupures de faisceaux (moyenne) [7]: élévation significative; Activité motrice 0-5 minutes, nombre de coupures de faisceaux (moyenne) [8]: 107; Activité motrice 5-15 minutes, nombre de coupures de faisceaux (moyenne) [8]: 141; Activité motrice 0-5 minutes, nombre de coupures de faisceaux (moyenne) [9]: 104; Activité motrice 0-15 minutes, nombre de coupures de faisceaux (moyenne) [9]: 230; Activité motrice 5-15 minutes, nombre de coupures de faisceaux (moyenne) [9]: 126; Activité motrice 0-5 minutes, nombre de coupures de faisceaux (moyenne) [10]: 100; Activité motrice 0-15 minutes, nombre de coupures de faisceaux (moyenne) [10]: 172; Activité motrice 5-15 minutes, nombre de coupures de faisceaux (moyenne) [10]: 72; Activité motrice 0-5 minutes, nombre de coupures de faisceaux (moyenne) [11]: 96; Activité motrice 0-15 minutes, nombre de coupures de faisceaux (moyenne) [11]: 213; Activité motrice 5-15 minutes, nombre de coupures de faisceaux (moyenne) [11]: 117; Activité motrice 0-5 minutes, nombre de coupures de faisceaux (moyenne) [12]: augmentation statistiquement significative; Activité motrice 0-15 minutes, nombre de coupures de faisceaux (moyenne) [12]: 258; Activité motrice 5-15 minutes, nombre de coupures de faisceaux (moyenne) [12]: augmentation statistiquement significative; Activité motrice 0-5 minutes, nombre de coupures de faisceaux (moyenne) [13]: 113; Activité motrice 5-15 minutes, nombre de coupures de faisceaux (moyenne) [13]: 145; Activité motrice 0-5 minutes, nombre de coupures de faisceaux (moyenne) [14]: 110; Activité motrice 0-15 minutes, nombre de coupures de faisceaux (moyenne) [14]: 214; Activité motrice 5-15 minutes, nombre de coupures de faisceaux (moyenne) [14]: 104

— patent EP0476120B1, “PROCESS FOR PREPARING EQUIMOLAR SALTS OF ASPARTIC ACID AND MAGNESIUM, MAGNESIUM ASPARTATE SALT OBTAINED BY SAID PROCESS AND ITS APPLICATIONS” (LA[…] SPINDLER, priority 1990, dated 1991)
